Results reported in patent US20170296550A1, “ARYL SULTAM DERIVATIVES AS RORc MODULATORS” (Genentech, Inc., priority 2013, published 2017).
pIC50: −log10 of the molar value.

Target: T1, RORc (Homo sapiens, UniProt P51449)
T1 construct: host or cells: E. coli
T1 sequence (P51449 269-508 limits assumed): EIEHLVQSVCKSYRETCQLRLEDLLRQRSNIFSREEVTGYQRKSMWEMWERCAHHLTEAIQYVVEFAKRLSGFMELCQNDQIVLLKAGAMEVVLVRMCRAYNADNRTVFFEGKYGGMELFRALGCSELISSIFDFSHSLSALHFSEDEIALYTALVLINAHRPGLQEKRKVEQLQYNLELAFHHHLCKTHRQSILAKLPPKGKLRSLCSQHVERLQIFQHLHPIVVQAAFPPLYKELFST
Test: In Vitro RORc Ligand Binding Assay (25-[3H]hydroxycholesterol radioligand, filter plate)
Conditions: RORc ligand binding domain 0.6 ug/mL; 6 nM 25-[3H]hydroxycholesterol; 3 h at 25° C.
Description: Example 68 In Vitro RORc Ligand Binding Assay
This assay was used to determine a compound's potency in inhibiting activity of RORc by determining, Kiapp, IC50, or percent inhibition values.
On day of the assay, 100 uL of 0.05% CHAPS (in deionized H2O) was added to all wells of the GFB Unifilter plate and allowed soak for 1 h. A wash buffer of 50 mM HEPES (pH 7.4), 150 mM NaCl, and 5 mM MgCl2 was prepared to wash the filter plate. To prepare an assay buffer, BSA was added to the wash buffer to reach 0.01% and DTT was added to reach 1 mM.
For IC50 mode, 10 mM compound stocks were serially diluted in DMSO with DMSO to give 20× required final concentration in DMSO (15 uL compound+30 uL DMSO). The 20× compound stocks were diluted in DMSO with Assay Buffer 4-fold to reach 5× the final test concentration in 25% DMSO (10 uL compound+30 uL Assay Buffer). Solutions were mixed by aspiration several times with a pipette set on 50 uL volume. For the assay, 10 uL of 5× compound stock solutions in 25% DMSO were added to the assay plate in duplicate.
For two point screening, 10 mM stock compound solutions were diluted in DMSO to obtain 200 uM (20× the high test concentration) and then diluted 10-fold further to reach 20 uM (20× the low test concentration). The 20× stocks were diluted 4-fold with Assay Buffer (10 uL compound+30 uL Assay Buffer) to reach 5× the test concentrations (50 uM and 5 uM) and 10 uL were added to two assay plates for the duplicate wells. With each concentration tested on 2 plates, each set of 80 compounds used 4 assay plates (1 uM and 10 uM, with n=2).
25-hydroxycholesterol (1 uM) was used to determine the level of NSB signal is prepared in DMSO as for compounds above, then diluted in Assay Buffer to give a final concentration of 5 uM. For 25-hydroxycholesterol in 25% DMSO/75% Assay Buffer; 10 uL per well was used for NSB samples. Wells for Total Binding and No Receptor sample determination contained 10 uL of 25% DMSO/75% Assay Buffer per well.
Radioligand (25-[^3H]hydroxycholesterol) Preparation
25-[^3H]hydroxycholesterol was dilute in Assay Buffer to obtain 15 nM and vortex to mix. Add 20 uL to all wells to reach 6 nM final in the assay.
Stock receptor solution was diluted in assay buffer to obtain 1.5 ug/mL in Assay Buffer. 20 uL was added to all wells. For No R samples, 20 uL Assay Buffer was substituted for receptor solution.
Assay plates were 96-well polypropylene V-bottom plates. 10 uL of 5× compound in 25% DMSO/75% Assay Buffer was added to Test wells. 10 uL of 25% DMSO/75% Assay Buffer was added to Total Binding or No Receptor wells. 10 uL of 5 uM 25-hydroxycholesterol in 25% DMSO/75% Assay Buffer was added to NSB wells. 20 uL of 15 nM 25-[^3H]hydroxycholesterol prepared in Assay Buffer was added to all wells. 20 uL of 1.5 ug/mL RORc receptor was added to wells (or […] Assay Buffer to No R wells). Following addition to the wells, the plates were incubated 3 h at 25° C.
Using a Packard Filtermate Harvester, the filter plate were washed 4 times following transfer of the incubated samples. Plates were dry-filtered completely (2 h at 50° C. or overnight at room temperature). 50 uL Microscint 0 was added to all wells and read on Topcount protocol Inverted.
Final concentrations were as follows: 50 mM HEPES buffer (pH 7.4); 150 mM NaCl; 1 mM DTT; 5 mM MgCl2; 0.01% BSA; 5% DMSO; 0.6 ug/mL RORc receptor; 6 nM 25-[^3H]hydroxycholesterol. For NSB wells, 1 uM 25-hydroxycholesterol was also present.

Row | SMILES | pIC50
1 | Cc1n[nH]c(C)c1-c1ccc(CN2[C@@H](C)CCC(c3ccccc3)S2(=O)=O)c(F)c1 (single isomer, unassigned) [Example 1] | 6.28
2 | Cc1noc(C)c1C(=O)Nc1ccc(CN2[C@@H](C)CCC(c3ccccc3)S2(=O)=O)c(F)c1 (single isomer, unassigned) [Example 4] | 7.57
3 | C[C@H]1CCC(c2ccccc2)S(=O)(=O)N1Cc1ccc(C(=O)NCc2cn[nH]c2)cc1 (single isomer, unassigned) [Example 7] | 6.30
4 | Cc1cc(NC(=O)c2ccc(CN3[C@@H](C)CCC(c4ccccc4)S3(=O)=O)cc2)n(C)n1 (single isomer, unassigned) [Example 9] | 6.01
5 | C[C@H]1CCC(c2ccccc2)S(=O)(=O)N1Cc1ccc(C(=O)Nc2nc[nH]c2C#N)cc1 (single isomer, unassigned) [Example 10] | 5.54
6 | C[C@H]1CCC(c2ccccc2)S(=O)(=O)N1Cc1ccc(-c2ccc3nncn3c2)cc1F (stereo partly drawn) [Example 5, 6-[3-Fluoro-4-((3S)-3-methyl-1,1-dioxo-6-phenyl-[1,2]thiazinan-2-ylmethyl)-phenyl]-[1,2,4]triazolo[4,3-a]pyridine] | 6.34
7 | C[C@H]1CCC(c2ccccc2)S(=O)(=O)N1Cc1ccc(C(=O)NCCn2ccnc2)cc1 (stereo partly drawn) [Example 6, N-(2-Imidazol-1-yl-ethyl)-4-((3S)-3-methyl-1,1-dioxo-6-phenyl-[1,2]thiazinan-2-ylmethyl)-benzamide] | 5.41
8 | C[C@H]1CC[C@H](c2ccccc2)S(=O)(=O)N1Cc1ccc(C(=O)NCCCn2ccnc2)cc1 [Example 8, N-(3-Imidazol-1-yl-propyl)-4-((3S)-3-methyl-1,1-dioxo-6-phenyl-[1,2]thiazinan-2-ylmethyl)-benzamide] | 5.30
9 | Cc1cc(NC(=O)c2ccc(CN3[C@@H](C)CCC(c4ccccc4)S3(=O)=O)cc2)n[nH]1 (stereo partly drawn) [Example 11, 4-((3S)-3-Methyl-1,1-dioxo-6-phenyl-[1,2]thiazinan-2-ylmethyl)-N-(5-methyl-1H-pyrazol-3-yl)-benzamidc] | 5.91
10 | Cc1cc(NC(=O)c2ccc(CN3[C@@H](C)CCC(c4ccccc4)S3(=O)=O)cc2)no1 (stereo partly drawn) [Example 12, 4-((3S)-3-Methyl-1,1-dioxo-6-phenyl-[1,2]thiazinan-2-ylmethyl)-N-(5-methyl-isoxazol-3-yl)-benzamide] | 6.39
11 | C[C@H]1CCC(c2ccccc2)S(=O)(=O)N1Cc1ccc(C(=O)Nc2ccon2)cc1 (stereo partly drawn) [Example 13, N-Isoxazol-3-yl-4-((3S)-3-methyl-1,1-dioxo-6-phenyl-[1,2]thiazinan-2-ylmethyl)-benzamide] | 6.78
12 | C[C@H]1CCC(c2ccccc2)S(=O)(=O)N1Cc1ccc(C(=O)NCc2noc(C(N)=O)n2)cc1 (stereo partly drawn) [Example 14, 3-{[4-((3S)-3-Methyl-1,1-dioxo-6-phenyl-[1,2]thiazinan-2-ylmethyl)-benzoylamino]-methyl}-[1,2,4]oxadiazole-5-carboxylic acid amide] | 5.86
13 | C[C@H]1CCC(c2ccccc2)S(=O)(=O)N1Cc1ccc(C(=O)NCc2noc(C(=O)N(C)C)n2)cc1 (stereo partly drawn) [Example 15, 3-{[4-((3S)-3-Methyl-1,1-dioxo-6-phenyl-[1,2]thiazinan-2-ylmethyl)-benzoylamino]-methyl}-[1,2,4]oxadiazole-5-carboxylic acid dimethylamide] | 5.28
14 | C[C@H]1CCC(c2ccccc2)S(=O)(=O)N1Cc1ccc(C(=O)N(C)c2ncco2)cc1 (stereo partly drawn) [Example 16, N-Methyl-4-((3S)-3-methyl-1,1-dioxo-6-phenyl-[1,2]thiazinan-2-ylmethyl)-N-oxazol-2-yl-benzamide] | 5.32
15 | C[C@H]1CCC(c2ccccc2)S(=O)(=O)N1Cc1ccc(C(=O)NCc2ccnn2C)cc1 (stereo partly drawn) [Example 17, 4-((3S)-3-Methyl-1,1-dioxo-6-phenyl-[1,2]thiazinan-2-ylmethyl)-N-(2-methyl-2H-pyrazol-3-ylmethyl)-benzamide] | 5.70
16 | CC(NC(=O)c1ccc(CN2[C@@H](C)CCC(c3ccccc3)S2(=O)=O)cc1)c1ncc[nH]1 (stereo partly drawn) [Example 18, N-[1-(1H-Imidazol-2-yl)-ethyl]-4-((3S)-3-methyl-1,1-dioxo-6-phenyl-[1,2]thiazinan-2-ylmethyl)-benzamide] | 5.72
17 | C[C@H]1CCC(c2ccccc2)S(=O)(=O)N1Cc1ccc(C(=O)NCc2ccno2)cc1 (stereo partly drawn) [Example 19, N-Isoxazol-5-ylmethyl-4-((3S)-3-methyl-1,1-dioxo-6-phenyl-[1,2]thiazinan-2-ylmethyl)-benzamide] | 6.01
18 | Cc1nn(C)cc1NC(=O)c1ccc(CN2[C@@H](C)CCC(c3ccccc3)S2(=O)=O)cc1 (stereo partly drawn) [Example 20, N-(1,3-Dimethyl-1H-pyrazol-4-yl)-4-((3S)-3-methyl-1,1-dioxo-6-phenyl-[1,2]thiazinan-2-ylmethyl)-benzamide] | 5.68

Further lines, results first:

Row | pIC50 | SMILES
19 | 5.48 | C[C@H]1CCC(c2ccccc2)S(=O)(=O)N1Cc1ccc(C(=O)Nc2ncnn2C)cc1 (single isomer, unassigned) [Example 21]
20 | 7.06 | C[C@H]1CCC(c2ccccc2)S(=O)(=O)N1Cc1ccc(-c2ccc(S(N)(=O)=O)cc2)cc1F (single isomer, unassigned) [Example 22]
21 | 6.68 | C[C@H]1CCC(c2ccccc2)S(=O)(=O)N1Cc1ccc(-c2cccc(CC(N)=O)c2)cc1F (single isomer, unassigned) [Example 25]
22 | 6.80 | C[C@H]1CCC(c2ccccc2)S(=O)(=O)N1Cc1ccc(-c2ccc(C(=O)N(C)C)cc2)cc1F (single isomer, unassigned) [Example 30]
23 | 6.56 | C[C@H]1CCC(c2ccccc2)S(=O)(=O)N1Cc1ccc(-c2csc(S(C)(=O)=O)n2)cc1F (single isomer, unassigned) [Example 37]
24 | 6.54 | C[C@H]1CCC(c2ccccc2)S(=O)(=O)N1Cc1ccc(-c2ccc(S(C)(=O)=O)nn2)cc1F (single isomer, unassigned) [Example 41]
25 | 5.66 | C[C@H]1CCC(c2ccccc2)S(=O)(=O)N1Cc1ccc(-c2n[nH]c(S(C)(=O)=O)n2)cc1F (single isomer, unassigned) [Example 42]
26 | 6.56 | C[C@H]1CCC(c2ccccc2)S(=O)(=O)N1Cc1ccc(-c2cnc(NS(C)(=O)=O)nc2)cc1F (single isomer, unassigned) [Example 43]
27 | 6.02 | Cc1ccnc(COc2ccc(CN3[C@@H](C)CCC(c4ccccc4)S3(=O)=O)cc2)n1 (single isomer, unassigned) [Example 44]
28 | 6.16 | CC(Oc1ccc(CN2[C@@H](C)CCC(c3ccccc3)S2(=O)=O)cc1)c1cnn(C)c1 (single isomer, unassigned) [Example 45]
29 | 5.87 | CC(Oc1ccc(CN2[C@@H](C)CCC(c3ccccc3)S2(=O)=O)cc1)c1ncccn1 (single isomer, unassigned) [Example 50]
30 | 6.94 | C[C@H]1CCC(c2ccccc2)S(=O)(=O)N1Cc1ccc(OCc2ccncc2)cc1 (single isomer, unassigned) [Example 57]
31 | 6.97 | C[C@H]1CCC(c2ccccc2)S(=O)(=O)N1Cc1ccc(OCc2cccnc2)cc1 (single isomer, unassigned) [Example 58]
32 | 6.82 | Cc1ncsc1CCOc1ccc(CN2[C@@H](C)CCC(c3ccccc3)S2(=O)=O)cc1 (single isomer, unassigned) [Example 61]
